Laboratory results reported in US20080015237A1 (ASTRAZENECA AB, priority 2006, published 2008).

target: human Kv1.5 channel (Homo sapiens, UniProt P22460); test: Test A: Rb+ efflux assay; format: cell-based; conditions: CHO cells stably transfected with cDNA for human Kv1.5
Description: This assay identifies compounds that block the human Kv1.5 channel potassium channel heterologously expressed in Chinese Hamster Ovary (CHO) cells by means of Rb+ ion efflux using Flame Atomic Absorption Spectroscopy. For experimental studies, CHO cells stably transfected with cDNA for human Kv1.5 were grown as confluent layers in Falcon, 384-well tissue culture-treated black-walled clear-bottomed plates and the plates were incubated overnight at 37° C. in a cell culture incubator.
After incubating overnight the cell plates were washed and a buffer containing Rb+ ions were added to the cell plates. The plates were then incubated for another 3-4 hours in a CO2-incubator (37° C.). Following this incubation period plates were washed, compounds were added and subsequently a buffer containing elevated K+ concentrations were added in order to activate the Kv1.5 channel. Following a short incubation time, aliquots of the supernatants were transferred to supernatant plates for subsequent determination of the Rb+ content using Atomic Absorption Spectrometry (ICR8000 instrument, Aurora Biomed Inc.).

human Kv1.5 channel, sequence (P22460 whole entry): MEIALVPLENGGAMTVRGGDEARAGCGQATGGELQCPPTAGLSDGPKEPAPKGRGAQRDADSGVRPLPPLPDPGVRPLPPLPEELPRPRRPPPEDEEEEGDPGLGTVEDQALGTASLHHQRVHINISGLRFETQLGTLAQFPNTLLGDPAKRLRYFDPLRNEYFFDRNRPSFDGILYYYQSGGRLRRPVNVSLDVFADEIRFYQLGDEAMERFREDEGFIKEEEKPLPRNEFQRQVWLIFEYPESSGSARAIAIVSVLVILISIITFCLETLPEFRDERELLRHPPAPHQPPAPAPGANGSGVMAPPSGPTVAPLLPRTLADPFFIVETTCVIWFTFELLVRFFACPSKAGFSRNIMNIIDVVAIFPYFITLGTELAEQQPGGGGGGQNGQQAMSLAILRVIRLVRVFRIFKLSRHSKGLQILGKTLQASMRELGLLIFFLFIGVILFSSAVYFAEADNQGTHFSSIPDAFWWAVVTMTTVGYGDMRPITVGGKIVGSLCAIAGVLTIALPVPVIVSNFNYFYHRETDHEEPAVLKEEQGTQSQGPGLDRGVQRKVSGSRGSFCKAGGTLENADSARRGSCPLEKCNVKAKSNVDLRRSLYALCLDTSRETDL

| IC50 [µM] | SMILES |
| --- | --- |
| 3 | CC(C)(C)NC(=O)C1c2c(O)cccc2C(=O)N1Cc1ccccc1-c1ccccc1 (stereo not drawn) [2-(biphenyl-2-ylmethyl)-N-(tert-butyl)-7-hydroxy-3-oxoisoindoline-1-carboxamide] |
| 0.41 | CC(C)(CO)CN1C(=O)c2ccc(Cl)cc2C1C(=O)NCc1cccc(OC(F)F)c1 (stereo not drawn) [6-chloro-N-[3-(difluoromethoxy)benzyl]-2-(3-hydroxy-2,2-dimethylpropyl)-3-oxoisoindoline-1-carboxamide] |
| 1.6 | CC(C)(C)NC(=O)C1c2cc(Cl)ccc2C(=O)N1Cc1ccccc1-c1ccccc1 (stereo not drawn) [2-(biphenyl-2-ylmethyl)-N-(tert-butyl)-6-chloro-3-oxoisoindoline-1-carboxamide] |
| 1.8 | O=C(NCc1ccccc1)C1c2ccccc2C(=O)N1CCC1=CCCCC1 (stereo not drawn) [N-benzyl-2-(2-cyclohex-1-en-1-ylethyl)-3-oxoisoindoline-1-carboxamide] |
| 15 | CCCCNC(=O)C1c2cc(F)ccc2C(=O)N1CC(C)c1ccc(Cl)cc1 (single isomer, unassigned) [(1S or 1R)-N-butyl-2-[(2S or 2R)-2-(4-chlorophenyl)propyl]-6-fluoro-3-oxoisoindoline-1-carboxamide] |
| 0.91 | CC(CN1C(=O)c2ccc(Cl)cc2C1C(=O)NC(C)(C)C)c1ccc(Cl)cc1 (stereo not drawn) [N-(tert-butyl)-6-chloro-2-[2-(4-chlorophenyl)propyl]-3-oxoisoindoline-1-carboxamide] |
| 2.4 | CC(c1ccccc1)N1C(=O)c2ccccc2C1C(=O)NCc1cccc(OC(F)F)c1 (stereo not drawn) [N-[3-(difluoromethoxy)benzyl]-3-oxo-2-(1-phenylethyl)isoindoline-1-carboxamide] |
| 0.71 | COc1ccc2c(c1)C(=O)N(CC(C)c1ccc(Cl)cc1)C2C(=O)NCc1ccccc1 (stereo not drawn) [N-benzyl-2-[2-(4-chlorophenyl)propyl]-5-methoxy-3-oxoisoindoline-1-carboxamide] |
| 1.1 | Cc1c(O)ccc2c1C(=O)N(Cc1ccccc1-c1ccccc1)C2C(=O)NC(C)(C)C (single isomer, unassigned) [(R or S) 2-(biphenyl-2-ylmethyl)-N-(tert-butyl)-5-hydroxy-4-methyl-3-oxoisoindoline-1-carboxamide] |
| 5.6 | CC(C)(C)NC(=O)C1c2ccccc2C(=O)N1Cc1cc(F)ccc1-c1ccc(F)cc1 (stereo not drawn) [N-(tert-butyl)-2-[(4,4′-difluorobiphenyl-2-yl)methyl]-3-oxoisoindoline-1-carboxamide] |
| 0.4 | CCC(c1ccccc1)N1C(=O)c2ccccc2C1C(=O)NCc1ccccc1 (stereo not drawn) [N-benzyl-3-oxo-2-(1-phenylpropyl)isoindoline-1-carboxamide] |
| 2.2 | C[C@@H](c1ccccc1)N1C(=O)c2ccc(Cl)cc2C1C(=O)NCc1ccccc1 (stereo partly drawn) [N-benzyl-6-chloro-3-oxo-2-[(1S)-1-phenylethyl]isoindoline-1-carboxamide] |
| 2.5 | O=C(NCc1ccccc1)C1c2ccccc2C(=O)N1Cc1ccccc1Br (stereo not drawn) [N-benzyl-2-(2-bromobenzyl)-3-oxoisoindoline-1-carboxamide] |
| 7.3 | CC(C)(C)NC(=O)C1c2ccccc2C(=O)N1Cc1ccccc1-c1ccc(F)cc1 (stereo not drawn) [N-(tert-butyl)-2-[(4′-fluorobiphenyl-2-yl)methyl]-3-oxoisoindoline-1-carboxamide] |
| 2.1 | C[C@H](c1ccccc1)N1C(=O)c2cc(Br)ccc2C1C(=O)NCc1ccccc1 (stereo partly drawn) [N-benzyl-5-bromo-3-oxo-2-[(1R)-1-phenylethyl]isoindoline-1-carboxamide] |
| 1 | O=C(NCc1ccccc1)C1c2cc(F)ccc2C(=O)N1Cc1ccccc1-c1ccccc1 (stereo not drawn) [N-benzyl-2-(biphenyl-2-ylmethyl)-6-fluoro-3-oxoisoindoline-1-carboxamide] |
| 0.51 | CC(CN1C(=O)c2ccccc2C1C(=O)NCc1ccccc1)c1ccc(Cl)cc1 (stereo not drawn) [N-benzyl-2-[2-(4-chlorophenyl)propyl]-3-oxoisoindoline-1-carboxamide] |
| 6 | CC(c1ccccc1)N1C(=O)c2ccccc2C1C(=O)NCc1ccccc1 (stereo not drawn) [N-benzyl-3-oxo-2-(1-phenylethyl)isoindoline-1-carboxamide] |
| 0.62 | CC(CN1C(=O)c2ccccc2C1C(=O)NCc1ccc2c(c1)OCO2)c1ccc(Cl)cc1 (stereo not drawn) [N-(1,3-benzodioxol-5-ylmethyl)-2-[2-(4-chlorophenyl)propyl]-3-oxoisoindoline-1-carboxamide] |
| 2.3 | CCCNC(=O)C1c2cc(F)ccc2C(=O)N1CC(C)c1ccc(Cl)cc1 (stereo not drawn) [2-[2-(4-chlorophenyl)propyl]-6-fluoro-3-oxo-N-propylisoindoline-1-carboxamide] |
| 0.78 | CC(CN1C(=O)c2ccccc2C1C(=O)NCc1ccc(C(F)(F)F)nc1)c1ccc(Cl)cc1 (stereo not drawn) [2-[2-(4-chlorophenyl)propyl]-3-oxo-N-{[6-(trifluoromethyl)pyridin-3-yl]methyl}isoindoline-1-carboxamide] |

| IC50 [µM] | SMILES |
| --- | --- |
| 0.7 | CC(CN1C(=O)c2ccccc2C1C(=O)NCc1ccccc1C(F)(F)F)c1ccc(Cl)cc1 (stereo not drawn) [2-[2-(4-chlorophenyl)propyl]-3-oxo-N-[2-(trifluoromethyl)benzyl]isoindoline-1-carboxamide] |
| 13 | CC(C)(C)NC(=O)C1c2ccccc2C(=O)N1Cc1ccccc1-c1ccc(F)c(F)c1 (single isomer, unassigned) [(1R or 1S)-N-(tert-butyl)-2-[(3′,4′-difluorobiphenyl-2-yl)methyl]-3-oxoisoindoline-1-carboxamide] |
| 2.8 | CC(C)(C)NC(=O)C1c2cc(Cl)ccc2C(=O)N1C(c1ccccc1)c1ccccc1 (stereo not drawn) [N-(tert-butyl)-6-chloro-2-(diphenylmethyl)-3-oxoisoindoline-1-carboxamide] |
| 0.73 | CCCCNC(=O)C1c2ccccc2C(=O)N1CC(C)c1ccc(Cl)cc1 (stereo not drawn) [N-butyl-2-[2-(4-chlorophenyl)propyl]-3-oxoisoindoline-1-carboxamide] |
| 1.9 | CC(C)(C)NC(=O)C1c2ccccc2C(=O)N1Cc1ccccc1C(F)(F)F (stereo not drawn) [N-(tert-butyl)-3-oxo-2-[2-(trifluoromethyl)benzyl]isoindoline-1-carboxamide] |
| 2.9 | CC(C)(C)CN1C(=O)c2ccccc2C1C(=O)NCc1cccc(Cl)c1 (stereo not drawn) [N-(3-chlorobenzyl)-2-(2,2-dimethylpropyl)-3-oxoisoindoline-1-carboxamide] |
| 2.7 | O=C(NCCCC(F)(F)F)C1c2cc(F)ccc2C(=O)N1Cc1ccccc1-c1ccccc1 (stereo not drawn) [2-(biphenyl-2-ylmethyl)-6-fluoro-3-oxo-N-(4,4,4-trifluorobutyl)isoindoline-1-carboxamide] |
| 1 | O=C(NCc1ccccc1)C1c2ccccc2C(=O)N1Cc1cc(-c2ccccc2)no1 (stereo not drawn) [N-benzyl-3-oxo-2-[(3-phenylisoxazol-5-yl)methyl]isoindoline-1-carboxamide] |
| 0.53 | CCCCNC(=O)C1c2ccccc2C(=O)N1CC(C)(C)c1ccc(Cl)cc1 (stereo not drawn) [N-butyl-2-[2-(4-chlorophenyl)-2-methyl-propyl]-3-oxo-1H-isoindole-1-carboxamide] |
| 0.89 | CN(Cc1ccccc1)C(=O)C1c2ccccc2C(=O)N1CCc1ccc(Cl)cc1 (stereo not drawn) [N-benzyl-2-[2-(4-chlorophenyl)ethyl]-N-methyl-3-oxoisoindoline-1-carboxamide] |
| 2.2 | COc1ccc2c(c1C)C(=O)N(Cc1ccccc1-c1ccccc1)C2C(=O)NC(C)(C)C (stereo not drawn) [2-(biphenyl-2-ylmethyl)-N-(tert-butyl)-5-methoxy-4-methyl-3-oxoisoindoline-1-carboxamide] |
| 0.21 | C[C@H](c1ccccc1)N1C(=O)c2ccc(Br)cc2C1C(=O)NCc1ccccc1 (stereo partly drawn) [N-benzyl-6-bromo-3-oxo-2-[(1R)-1-phenylethyl]isoindoline-1-carboxamide] |
| 1.4 | O=C(NCc1ccccc1)C1c2cc(F)ccc2C(=O)N1Cc1ccccc1C(F)(F)F (stereo not drawn) [N-benzyl-6-fluoro-3-oxo-2-[2-(trifluoromethyl)benzyl]isoindoline-1-carboxamide] |
| 2.5 | O=C(NCc1ccc(F)cc1)C1c2ccccc2C(=O)N1C(c1ccccc1)c1ccccc1 (stereo not drawn) [2-(diphenylmethyl)-N-(4-fluorobenzyl)-3-oxoisoindoline-1-carboxamide] |
| 2 | N#Cc1cccc(CNC(=O)C2c3ccccc3C(=O)N2Cc2cccc(Cl)c2)c1 (stereo not drawn) [2-(3-chlorobenzyl)-N-(3-cyanobenzyl)-3-oxoisoindoline-1-carboxamide] |
| 2.4 | O=C(NCc1ccc(CNC(=O)C2c3ccccc3C(=O)N2Cc2ccccc2-c2ccccc2)cc1)C(F)F (stereo not drawn) [2-(biphenyl-2-ylmethyl)-N-(4-{[(difluoroacetyl)amino]methyl}benzyl)-3-oxoisoindoline-1-carboxamide] |
| 1.5 | O=C(NCc1ccc(C(F)(F)F)nc1)C1c2cc(Cl)ccc2C(=O)N1Cc1ccccc1-c1ccccc1 (stereo not drawn) [2-(biphenyl-2-ylmethyl)-6-chloro-3-oxo-N-{[6-(trifluoromethyl)pyridin-3-yl]methyl}isoindoline-1-carboxamide] |
| 1.2 | CC(CN1C(=O)c2ccccc2C1C(=O)NCc1ccc(C#N)cc1)c1ccc(Cl)cc1 (stereo not drawn) [2-[2-(4-chlorophenyl)propyl]-N-(4-cyanobenzyl)-3-oxoisoindoline-1-carboxamide] |
| 1.8 | CC(CN1C(=O)c2ccccc2C1C(=O)NCCCC(F)(F)F)c1ccc(Cl)cc1 (stereo not drawn) [2-[2-(4-chlorophenyl)propyl]-3-oxo-N-(4,4,4-trifluorobutyl)isoindoline-1-carboxamide] |
| 1.3 | CC(C)(C)CN1C(=O)c2ccccc2C1C(=O)NCc1cccc(OC(F)F)c1 (stereo not drawn) [N-[3-(difluoromethoxy)benzyl]-2-(2,2-dimethylpropyl)-3-oxoisoindoline-1-carboxamide] |
| 1.8 | CC(CN1C(=O)c2cc(Cl)c(Cl)cc2C1C(=O)NC(C)(C)C)c1ccc(Cl)cc1 (stereo not drawn) [N-(tert-butyl)-5,6-dichloro-2-[2-(4-chlorophenyl)propyl]-3-oxoisoindoline-1-carboxamide] |
